Common to all, as to assay type: functional, cell-based
The subject of one assay is HeLa. Put plainly: Antitumor activity against human HeLa cells assessed as inhibition of cell growth by MTT assay.
The test system of a further assay is SiHa. The experiment in a line: Antitumor activity against human SiHa cells assessed as inhibition of cell growth by MTT assay.
The next assay deals with BeWo. The experiment in a line: Antitumor activity against human Bewo cells assessed as inhibition of cell growth by MTT assay.
A short description of assay [1]: Antitumor activity against human HL60 cells assessed as inhibition of cell growth by MTT assay. To be noted: HL-60.
The nature of assay [2]: Antitumor activity against human SGC7901 cells assessed as inhibition of cell growth by MTT assay. As to conditions: SGC-7901.
For another assay, the system named is HepG2. Put plainly: Antitumor activity against human HepG2 cells assessed as inhibition of cell growth by MTT assay.

In the case of `CCCCCCCCCCCCCCCCCCOC(=O)/C=C/c1ccc(O)c(O)c1`, the IC50 is over 100 µM in the assay on HeLa; over 100 µM in the assay with SiHa; over 100 µM with BeWo; 10.2 µM in assay [1]; 17.2 µM in assay [2]; 4.95 µM in the assay on HepG2.

For the compound `O=C(/C=C/c1ccc(O)c(O)c1)OCCc1ccccc1` [CAFFEIC ACID PHENETHYL ESTER], the IC50 was 38 µM in the assay with HeLa; 66.9 µM in the assay on SiHa; 2.96 µM with BeWo; 16.6 µM in assay [1]; 14.3 µM in assay [2]; 40.9 µM with HepG2.

`O=C(/C=C/c1ccc(O)c(O)c1)OCc1ccccc1` [BENZYL CAFFEATE]: the IC50 is 23.5 µM in the assay on HeLa; 74.3 µM in the assay on SiHa; 28.2 µM in the assay with BeWo; 8 µM in assay [1]; 70.5 µM in assay [2]; 85.6 µM in the assay on HepG2.

Turning to `CC1(C)C2CCC1(C)C(OC(=O)/C=C/c1ccc(O)c(O)c1)C2` (stereo unspecified), the IC50 in the assay on HeLa was 20.6 µM; in the assay with SiHa, 73.7 µM; in the assay on BeWo, 35.9 µM; in assay [1] it was 3.35 µM; in assay [2] it was 12 µM; in the assay on HepG2, 31.4 µM.

For `CCCCCCCOC(=O)/C=C/c1ccc(O)c(O)c1`, the IC50 in the assay with HeLa was 21.5 µM; with SiHa, 35.8 µM; in the assay on BeWo it was 2.77 µM; in assay [1], 4.46 µM; in assay [2] it was 34 µM; with HepG2, 44.7 µM.

Take `COc1cc(/C=C/C(=O)NC23CC4CC(CC(C4)C2)C3)cc(Cl)c1O`: the IC50 in the assay on HeLa was 98.4 µM; in the assay on SiHa it was 34.8 µM; in the assay on BeWo it was 44.5 µM; in assay [1] it was 67.9 µM.

In the case of `C#CCOC(=O)/C=C/c1ccc(O)c(O)c1`, the IC50 with HeLa was 19.2 µM; in the assay with SiHa, 39.1 µM; in the assay on BeWo, 8.99 µM; in assay [1], 12.3 µM; in assay [2] it was over 100 µM; in the assay on HepG2 it was over 100 µM.

As to `CCCCCCCCOC(=O)/C=C/c1ccc(O)c(O)c1`, the IC50 in the assay with HeLa was 34.9 µM; with SiHa, 45.9 µM; in the assay with BeWo, 13.1 µM; in assay [1], 8.29 µM; in assay [2], 56 µM; in the assay on HepG2, 54.3 µM.

`O=C(/C=C/c1cc(O)c(O)c(Br)c1)NC12CC3CC(CC(C3)C1)C2`: the IC50 with HeLa is 33.2 µM; in the assay on SiHa, over 100 µM; with BeWo, 60.9 µM; in assay [1] it was over 100 µM.

Turning to `O=C(/C=C/c1ccc(O)c(O)c1)Oc1ccccc1`, the IC50 turned out to be 29.8 µM in the assay with HeLa; 52.3 µM in the assay with SiHa; 30.7 µM in the assay with BeWo; 10.8 µM in assay [1]; 90.3 µM in assay [2]; 50.8 µM with HepG2.

In the case of `COc1c(O)ccc(/C=C/C(=O)NC23CC4CC(CC(C4)C2)C3)c1[N+](=O)[O-]`, the IC50 in the assay with HeLa was 91.3 µM; in the assay on SiHa, 38.9 µM; in the assay on BeWo, 26.7 µM; in assay [1], 73.2 µM.

Take `CC(C)OC(=O)/C=C/c1ccc(O)c(O)c1`: the IC50 was determined as 30.1 µM in the assay with HeLa; 48.2 µM in the assay with SiHa; 5.9 µM with BeWo; 11.8 µM in assay [1]; 97.7 µM in assay [2]; 91.6 µM in the assay with HepG2.

On to `COc1cccc2c1C(=O)c1c(O)c3c(c(O)c1C2=O)C[C@@](O)(C(=O)CO)C[C@@H]3O[C@H]1C[C@H](N)[C@H](O)[C@H](C)O1` [DOXORUBICIN], for which the IC50 in the assay on HeLa was 0.33 µM; in the assay on SiHa, 2.04 µM; with BeWo, 1.07 µM; in assay [1] it was 0.42 µM.

Consider `COc1cc(/C=C/C(=O)NC23CC4CC(CC(C4)C2)C3)cc(Br)c1O`, for which the IC50 in the assay with HeLa was over 100 µM; in the assay with SiHa, 82.4 µM; with BeWo, 41.4 µM; in assay [1] it was 49.8 µM.

As for `CCC(C)OC(=O)/C=C/c1ccc(O)c(O)c1` (stereo unspecified), the IC50 in the assay on HeLa was 13.8 µM; with SiHa, 33.8 µM; with BeWo it was 3.18 µM; in assay [1] it was 12.5 µM; in assay [2], over 100 µM; in the assay with HepG2 it was 95.8 µM.

As for `C=CCOC(=O)/C=C/c1ccc(O)c(O)c1`, the IC50 in the assay on HeLa was 67.2 µM; in the assay on SiHa, 30.7 µM; in the assay with BeWo, 8.64 µM; in assay [1] it was 11.5 µM; in assay [2] it was 89.2 µM; in the assay on HepG2, over 100 µM.

In the case of `COc1cc(/C=C/C(=O)OC23CC4CC(CC(C4)C2)C3)ccc1O`, the IC50 in the assay with HeLa is 59.9 µM; in the assay on SiHa, over 100 µM; with BeWo, 70 µM; in assay [1], 92.4 µM.

With `O=C(/C=C/c1ccc(O)c(O)c1)Oc1ccc2ccccc2c1`, the IC50 in the assay on HeLa came out at 8.04 µM; in the assay on SiHa, 39.5 µM; with BeWo it was 0.36 µM; in assay [1], 3.4 µM; in assay [2] it was 44.8 µM; in the assay with HepG2, 14.8 µM.

As to `CC(C)(COC(=O)/C=C/c1ccc(O)c(O)c1)[N+](=O)[O-]`, the IC50 with HeLa was 23.6 µM; in the assay on SiHa it was 30.5 µM; with BeWo, 7.26 µM; in assay [1], 9.32 µM; in assay [2], over 100 µM; in the assay on HepG2 it was 38.1 µM.

Consider `O=C(/C=C/c1ccc(O)c(O)c1)O[C@H]1C[C@@](O)(C(=O)O)C[C@H](O)[C@@H]1O`, for which the IC50 (in assay [1]; in assay [2]; in the assay with HepG2) was over 100 µM in each case.

With `O=C(/C=C/c1cc(O)c(O)c(Cl)c1)OCCc1ccccc1`, the figures for the IC50 in assay [1] and in assay [2] were 7.01 µM and 8.18 µM, respectively.

In the case of `O=C(/C=C/c1ccc(O)c(O)c1[N+](=O)[O-])OCCc1ccccc1`, the IC50 with HeLa is 10.9 µM; in the assay with SiHa, 17.2 µM; in the assay with BeWo, 4.38 µM; in assay [1] it was 18.2 µM.

As for `CC1(C)C2CCC1(C)C(OC(=O)/C=C/c1cc(O)c(O)c(Br)c1)C2` (stereo unspecified), the IC50 in the assay with HeLa worked out at 22.7 µM; with SiHa, 29 µM; in the assay on BeWo, 20 µM; in assay [1] it was 15.2 µM.

For the compound `COc1cc(/C=C/C(=O)NC23CC4CC(CC(C4)C2)C3)cc([N+](=O)[O-])c1O`, the IC50 in the assay on HeLa amounted to 66.8 µM; with SiHa, 59.5 µM; in the assay with BeWo it was 68.2 µM; in assay [1], 18.7 µM.

As to `CC1(C)C2CCC1(C)C(OC(=O)/C=C/c1ccc(O)c(O)c1[N+](=O)[O-])C2` (stereo unspecified), the IC50 was 13.9 µM in the assay with HeLa, 51.8 µM in the assay on SiHa, 9.31 µM with BeWo and 52.9 µM in assay [1].

For `CC1(C)C2CCC1(C)C(OC(=O)/C=C/c1cc(O)c(O)c(Cl)c1)C2` (stereo unspecified), the IC50 worked out at 38.7 µM in the assay on HeLa; 33.8 µM in the assay on SiHa; 51.9 µM in the assay with BeWo; 18.6 µM in assay [1]; 69.5 µM in assay [2].

Take `COc1cc(/C=C/C(=O)NC23CC4CC(CC(C4)C2)C3)ccc1O`: the IC50 in the assay with HeLa was over 100 µM; with SiHa it was 67.6 µM; with BeWo, over 100 µM; in assay [1], over 100 µM.

`O=C(/C=C/c1cc(O)c(O)c(Cl)c1)NC12CC3CC(CC(C3)C1)C2`: the 50% inhibitory concentration (IC50) with HeLa stood at 50 µM; in the assay on SiHa, 18.9 µM; in the assay with BeWo, 68.4 µM; in assay [1] it was 35.6 µM.

These data come from ChEMBL document CHEMBL3352306, “Synthesis and antitumor activity of feruloyl and caffeoyl derivatives” (Bioorg Med Chem Lett, 2014).
